Results on 16 compounds are retold here after US11655216B2 (priority 2016, dated 2023).

The target in experiment [1] is T1, glutathione-S-transferase (GST) tagged LXRalpha LBD (ligand binding domain) (Homo sapiens, UniProt Q13133).
T1 construct: purchased Invitrogen pv4655
T1 sequence (Q13133 209-447 limits assumed): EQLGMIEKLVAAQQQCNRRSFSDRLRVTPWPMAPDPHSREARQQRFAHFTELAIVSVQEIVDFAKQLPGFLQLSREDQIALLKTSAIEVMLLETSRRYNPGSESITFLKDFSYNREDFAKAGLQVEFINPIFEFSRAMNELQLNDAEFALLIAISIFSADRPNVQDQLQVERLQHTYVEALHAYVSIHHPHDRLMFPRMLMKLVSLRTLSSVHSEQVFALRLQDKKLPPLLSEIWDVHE
As to the kind of experiment: biochemical. How it is done: (§1) While running the LanthaScreen™ TR-FRET Liver X Receptor Coactivator Assay, LXR alpha-LBD or LXR beta-LBD was added to ligand test compounds followed by addition of a mixture of a fluorescein-labelled coactivator peptide and terbium-conjugated anti-GST antibody. After an incubation period at room temperature, TR-FRET (time-resolved fluorescence resonance energy transfer) was measured using a filter-based instrument capable of TR-FRET, e.g. PerkinElmer Envision.

Experiment [2] deals with T2, glutathione-S-transferase (GST) tagged LXRbeta LBD (ligand binding domain) (Homo sapiens, UniProt P55055).
T2 construct: purchased Invitrogen pv4658
T2 sequence (P55055 222-460 limits assumed): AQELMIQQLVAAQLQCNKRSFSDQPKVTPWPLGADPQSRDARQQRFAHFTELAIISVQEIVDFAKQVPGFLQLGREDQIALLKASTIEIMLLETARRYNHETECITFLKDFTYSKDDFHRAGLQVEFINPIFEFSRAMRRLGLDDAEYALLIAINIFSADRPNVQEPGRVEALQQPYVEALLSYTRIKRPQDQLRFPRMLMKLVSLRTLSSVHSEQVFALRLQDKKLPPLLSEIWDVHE
As to the kind of experiment: LanthaScreen TR-FRET Liver X Receptor Coactivator Assay, LXR beta. The experiment is classed as biochemical. The settings on record: for pEC50: LXR beta IP, potency (Inflection Point), compound-induced co-activator recruitment, TR-FRET; for Emax: read-out: LXR beta actiivty at max dose, efficacy (% Emax) in relation to reference dual agonist T0901317. The procedure: as §1
Background: In TR-FRET formats the signal depends on donor and acceptor labels being close together.

[3] abbreviates: LXR alpha IP, potency (Inflection Point), compound-induced co-activator recruitment, TR-FRET.
Setting [4] is: read-out: LXR alpha actiivty at max dose, efficacy (% Emax) in relation to reference dual agonist T0901317.
[5] abbreviates: efficacy (% Emax) in relation to reference dual agonist T0901317, read-out: LXR alpha actiivty at max dose.
Setting [6] is: potency (Inflection Point), compound-induced co-activator recruitment, TR-FRET, read-out: LXR alpha IP.
[7] abbreviates: potency (Inflection Point), compound-induced co-activator recruitment, TR-FRET.
The mark [8] stands for this setting: efficacy (% Emax) in relation to reference dual agonist T0901317.

pEC50: −log10 of the molar value. Like-named read-outs stand apart in the source and are kept apart here.

As to `CN(C)C(=O)c1ccc(OCCC2CC23CCN(C(=O)C(C)(C)c2csc(N)n2)CC3)cc1Cl` (single isomer, unassigned) [Example 12-10, (R or S)-4-(2-(6-(2-(2-aminothiazol-4-yl)-2-methylpropanoyl)-6-azaspiro[2.5]octan-1-yl)ethoxy)-2-chloro-N,N-dimethylbenzamide], the pEC50 in experiment [1] (setting [3]) is 5.43; in experiment [2] it was 6.22. Besides, the results for the Emax in experiment [1] (setting [4]) and in experiment [2] were 21% and 61%, respectively.

Turning to `CC(CCC1CCN(C(=O)[C@](O)(c2ccccc2)C(F)(F)F)CC1)COc1ccc(C(=O)N(C)C)c(Cl)c1` (single isomer, unassigned) [Example 23-1, 2-chloro-N,N-dimethyl-4-((R or S)-2-methyl-4-(1-((R or S)-3,3,3-trifluoro-2-hydroxy-2-phenylpropanoyl)piperidin-4-yl)butoxy)benzamide], the results for the Emax in experiment [1] (setting [5]) and in experiment [2] were 23% and 74%, respectively. In addition, the pEC50 in experiment [1] (setting [6]) was 6.36; in experiment [2] it was 7.62.

For `CNC(=O)c1ccc(OCC[C@@H]2C[C@@H]2C2CCN(C(=O)[C@](O)(c3cc(F)cc(F)c3)C(F)(F)F)CC2)cc1Cl` (single isomer, unassigned) [Example 10-3, 2-chloro-4-(2-((1S,2R or 1R, 2S)-2-(1-((R or S)-2-(3,5-difluorophenyl)-3,3,3-trifluoro-2-hydroxypropanoyl)piperidin-4-yl)cyclopropyl)ethoxy)-N-methylbenzamide], the pEC50 is 7.55 in experiment [1] (setting [3]) and 8.70 in experiment [2]. The Emax in experiment [1] (setting [4]) is 63%; in experiment [2], 116%.

As for `CN(C)C(=O)c1ccc(OCCCCC2CCN(C(=O)C3(c4ccccc4)CCC3)CC2)cc1Cl` [Example 3-7, 2-chloro-N,N-dimethyl-4-(4-(1-(1-phenylcyclobutanecarbonyl)piperidin-4-yl)butoxy)benzamide], the “LXR alpha IP” value in experiment [1] (setting [7]) is recorded as “No IP”. Further, the Emax in experiment [1] (setting [4]) was 0%; in experiment [2] it was 54%. Further, in experiment [2], the pEC50 is 7.24.

On to `CN(C)C(=O)c1ccc(O[C@H]2C[C@@H](CC3CCN(C(=O)[C@](O)(c4cccc(C5CC5)c4)C(F)(F)F)CC3)C2)cc1Cl` (single isomer, unassigned) [Example 37-5, 2-chloro-4-((1R,3s)-3-((1-((R or S)-2-(3-cyclopropylphenyl)-3,3,3-trifluoro-2-hydroxypropanoyl)piperidin-4-yl)methyl)cyclobutoxy)-N,N-dimethylbenzamide], for which the pEC50 was 6.40 in experiment [1] (setting [3]) and 8.22 in experiment [2]. Besides, the Emax worked out at 30% in experiment [1] (setting [4]) and 134% in experiment [2].

On to `CN(C)C(=O)c1ccc(OCCC[C@@H]2CC23CCN(C(=O)[C@@](O)(c2ccccc2)C(F)(F)F)CC3)nc1Cl` (single isomer, unassigned) [Example 15-2, 2-chloro-N,N-dimethyl-6-(3-((R or S)-6-((S or R)-3,3,3-trifluoro-2-hydroxy-2-phenylpropanoyl)-6-azaspiro[2.5]octan-1-yl)propoxy)nicotinamide], for which the pEC50 is 6.18 in experiment [1] (setting [6]) and 7.19 in experiment [2]. The Emax came to 32% in experiment [1] (setting [4]) and 115% in experiment [2].

As for `O=C(NCC(F)F)c1ccc(OCCCCC2CCN(C(=O)[C@](O)(c3ccccc3)C(F)(F)F)CC2)cc1Cl` (single isomer, unassigned) [Example 8-9, (R or S)-2-chloro-N-(2,2-difluoroethyl)-4-(4-(1-(3,3,3-trifluoro-2-hydroxy-2-phenylpropanoyl)piperidin-4-yl)butoxy) benzamide], the pEC50 in experiment [1] (setting [3]) is 6.07; in experiment [2], 7.03. Further, the values for the Emax in experiment [1] (setting [4]) and in experiment [2] were 34% and 82%, respectively.

Consider `CC(C)C(O)(C(=O)N1CCC(C2CC2COc2ccc(C(=O)N(C)C)c(Cl)c2)CC1)C(F)(F)F` (single isomer, unassigned) [Example 32-2, 2-chloro-4-(((1R,2S or 1S,2R)-2-(1-((R or S)-2-hydroxy-3-methyl-2-(trifluoromethyl)butanoyl)piperidin-4-yl)cyclopropyl)methoxy)-N,N-dimethylbenzamide], for which the “LXR alpha actiivty at max dose” value in experiment [1] (setting [8]) is given as 8%. Besides, in experiment [1] (setting [7]), the “LXR alpha IP” value is “No IP”. In experiment [2], this compound gave a pEC50 of 6.69. For the same compound, in experiment [2] (setting [8]), the “LXR beta actiivty at max dose” value worked out at 73%.

As for `CN(C)C(=O)c1ccc(O[C@H]2C[C@@H](CC3CCN(C(=O)[C@](O)(c4cccc(OC5CC5)c4)C(F)(F)F)CC3)C2)cc1Cl` (single isomer, unassigned) [Example 37-2, 2-chloro-4-((1R,3s)-3-((1-((R or S)-2-(3-cyclopropoxyphenyl)-3,3,3-trifluoro-2-hydroxypropanoyl)piperidin-4-yl)methyl)cyclobutoxy)-N,N-dimethylbenzamide], in experiment [1] (setting [7]), the “LXR alpha IP” value is listed as “No IP”. The Emax in experiment [1] (setting [4]) amounted to 2%. In experiment [2], the pEC50 was 7.40 and the Emax came to 109%.

For `CN(C)C(=O)c1ccc(OCC[C@H]2C[C@H]2C2CCN(C(=O)[C@](O)(c3ccccc3)C(F)(F)F)CC2)cc1C#N` (single isomer, unassigned) [Example 11-1, 2-cyano-N,N-dimethyl-4-(2-((1R,2S or 1S,2R)-2-(1-((R or S)-3,3,3-trifluoro-2-hydroxy-2-phenylpropanoyl)piperidin-4-yl)cyclopropyl)ethoxy)benzamide], the Emax is 23% in experiment [1] (setting [5]) and 78% in experiment [2]. For the same compound, the pEC50 is 5.85 in experiment [1] (setting [6]) and 6.97 in experiment [2].

In the case of `CN(C)C(=O)c1ccc(OCC[C@@H]2CC23CCN(C(=O)C(C)(c2ccccc2)C2CCC2)CC3)cc1Cl` (single isomer, unassigned) [Example 12-14, 2-chloro-4-(2-((S or R)-6-((S or R)-2-cyclobutyl-2-phenylpropanoyl)-6-azaspiro[2.5]octan-1-yl)ethoxy)-N,N-dimethylbenzamide], the pEC50 in experiment [1] (setting [3]) is 6.46; in experiment [2] it was 7.66. For the same compound, the figures for the Emax in experiment [1] (setting [4]) and in experiment [2] were 20% and 74%, respectively.

`CN(C)C(=O)c1ccc(OCCCC2CCN(C(=O)c3cc(F)ccc3F)CC2)cc1Cl` [Example 3-1, 2-chloro-4-(3-(1-(2,5-difluorobenzoyl)piperidin-4-yl)propoxy)-N,N-dimethylbenzamide]: the “LXR alpha IP” value in experiment [1] was “No IP”. In experiment [1] (read-out: LXR alpha actiivty at max dose), the Emax was found to be 32%. Moreover, in experiment [2], the pEC50 is 6.30 and the Emax came to 62%.

`CN(C)C(=O)c1ccc(OCC2CC3(CCN(C(=O)C(C)(C)c4ccccc4)CC3)C2)cc1Cl` [Example 33-2, 2-chloro-N,N-dimethyl-4-((7-(2-methyl-2-phenylpropanoyl)-7-azaspiro[3.5]nonan-2-yl)methoxy)benzamide]: the “LXR alpha IP” value in experiment [1] (setting [7]) is listed as “No IP”. Besides, the Emax in experiment [1] (setting [4]) was 8%. Besides, in experiment [2], the pEC50 is 6.66 and the Emax stood at 60%.

On to `CCNC(=O)c1ccc(OCCCCC2CCN(C(=O)[C@](O)(c3ccccc3)C(F)(F)F)CC2)cc1Cl` (single isomer, unassigned) [Example 8-10, (R or S)-2-chloro-N-ethyl-4-(4-(1-(3,3,3-trifluoro-2-hydroxy-2-phenylpropanoyl)piperidin-4-yl)butoxy) benzamide], for which the pEC50 is 6.14 in experiment [1] (setting [3]) and 7.52 in experiment [2]. The results for the Emax in experiment [1] (setting [4]) and in experiment [2] were 28% and 76%, respectively.

As for `CN(C)C(=O)c1ccc(OCC[C@@H]2C[C@@H]2C2CCN(C(=O)OCc3ccccc3)CC2)nc1Cl` (single isomer, unassigned) [Example 10-7, benzyl 4-((1R,2S or 1S,2R)-2-(2-(6-chloro-5-(dimethylcarbamoyl)pyridin-2-yloxy)ethyl)cyclopropyl) piperidine-1-carboxylate], the pEC50 in experiment [1] (setting [3]) is 6.06; in experiment [2] it was 7.31. The Emax came to 41% in experiment [1] (setting [4]) and 104% in experiment [2].

In the case of `COc1cccc(C(O)(C(=O)N2CCC(C(F)CCCOc3ccc(C(=O)N(C)C)c(Cl)c3)CC2)C(F)(F)F)c1` (single isomer, unassigned) [Example 21-1, 2-chloro-4-(4-fluoro-4-(1-((R or S)-3,3,3-trifluoro-2-hydroxy-2-(3-methoxyphenyl)propanoyl)piperidin-4-yl)butoxy)-N,N-dimethylbenzamide], the Emax is 27% in experiment [1] (setting [5]) and 75% in experiment [2]. Besides, the pEC50 in experiment [1] (setting [6]) is 6.37; in experiment [2], 8.05.
